Data: US20250177579A1, “NOVEL COMPOUND, a-SYNUCLEIN AGGREGATE BINDER, AND USE THEREOF” (NATIONAL INSTITUTES FOR QUANTUM SCIENCE AND TECHNOLOGY, priority 2022, published 2025)

Experiments:
α-synuclein lesions = molecular target: T1, α-synuclein lesions (Mus musculus, UniProt O55042); experiment: In vivo two-photon laser scanning fluorescence microscopy of α-synuclein fibril-inoculated mouse; conditions: 50 μl of 0.1% DMSO solution, imaging 30 minutes after administration, FIG. 4; for binding to α-synuclein lesions in vivo: excitation 900 nm
T1 construct: from tissue; host or cells: brain of a C57/BL/6 mouse inoculated in the striatum with recombinant mouse α-synuclein fibrils (made in E. coli)
Method: First, mouse α-synuclein was expressed in and extracted from E. coli as a recombinant protein, and then incubated in vitro to form insoluble α-synuclein aggregates. The α-synuclein aggregates were then inoculated into the striatum of a mouse. […] Note that the inoculation of the α-synuclein aggregates into the striatum of the mouse was carried out in the following manner. First, hair on the head of a 9-week-old C57/BL/6 male mouse which had been anesthetized with 1.5% (v/v) isoflurane was removed, and the scalp was disinfected with isodine, followed by application of xylocaine and incision in the scalp to expose the skull. Then, a hole was drilled in the skull at a position of 0.05 mm posterior to the bregma and 2 mm lateral to the midline, and 3 μl of an α-synuclein fibril solution (mouse α-synuclein fibril (4 mg/ml) in saline) was injected into a position 2 mm ventral to the brain surface with use of a glass pipette. The scalp was then returned and sutured.
A model mouse was anesthetized with 1.5% (v/v) isoflurane 4 or more months after inoculation of an α-synuclein fibril solution. Then, a cranial window was placed on the model mouse in accordance with the Seylaz-Tomita method (Tomita et al. J Cereb Blood Flow Metab 25, 858-67, 2005). Two or more weeks after the placement of the cranial window, the mouse was fixed under a two-photon laser fluorescence microscope, 100 μl of physiological saline containing 5 mmol/1 Sulforhodamine 101 was intraperitoneally administered to the mouse, and then intravital two-photon fluorescence imaging was carried out at an excitation wavelength of 900 nm. Thereafter, 50 μl of DMSO solution containing C05-05, SPAL-T-83, SPAL-T-95, or SPAL-E-17 at a 0.1% concentration was intraperitoneally administered to the mouse. Thirty minutes after the administration, intravital two-photon fluorescence imaging was carried out at an excitation wavelength of 900 nm. Detection wavelengths for C05-05, SPAL-T-83, SPAL-T-95, and SPAL-E-17 were set at 500 nm to 550 nm, and a detection wavelength for Sulforhodamine 101 was set at 573 nm to 648 nm. In FIG. 4, each arrow indicates a blood vessel, and each arrowhead indicates fluorescence from the compound binding to an α-synuclein lesion.

α-synuclein aggregates [1] = molecular target: T2, α-synuclein aggregates (Homo sapiens, UniProt P37840); experiment: In vitro fluorescence microscope measurement, DLB patient brain sections; format: binding; design: from tissue; host or cells: amygdala sections of a DLB patient's postmortem brain; conditions: 30 μmol/l test compound, 50% ethanol, amygdala sections of DLB patient, FIGS. 1 and 2
Text: (§1) Postmortem human brains were obtained in autopsies carried out with respect to a patient with dementia with Lewy bodies (DLB) and a patient with Alzheimer's disease (AD). In a cryostat (HM560, Carl Zeiss), frozen tissue from the DLB patient was sliced into sections each having a thickness of 20 μm. Brain tissue from the AD patient was fixed in 10% neutral buffered formalin, embedded in a paraffin block, and sliced into sections each having a thickness of 6 μm.
(§2) Each brain section and a 30 μmol/l test compound were incubated in a 50% ethanol solution at room temperature for 30 minutes. Subsequently, the sections were rinsed with 50% ethanol for 5 minutes and dipped into double-distilled water twice for 3 minutes each. After the section was mounted in a mounting medium (VECTASHIELD H-1000, Vector Laboratories), an image of a lesion-enriched area on the section was obtained with use of a fluorescence microscope (DM4000, Leica). In FIG. 1, each arrowhead indicates fluorescence from the compound binding to α-synuclein aggregates in the brain of the DLB patient, each arrow indicates fluorescence from the compound binding to amyloid-β aggregates in the brain of the AD patient, and an asterisk indicates fluorescence from the compound binding to tau aggregates in the brain of the AD patient. The fluorescence intensities of lesion-enriched areas and lesion-free areas (background) were quantified with use of analysis software (Image J). Note that SPAL-T-83, SPAL-T-95, and SPAL-E-17 were each used as the test compound. Note also that ((E)-1-fluoro-3-(2-(4-(6-(methylamino)pyridin-3-yl)but-1-en-3-ynyl)benzo[d]thiazol-6-yloxy)propan-2-ol (C05-05) synthesized by the method disclosed in Synthetic Example 21 of Patent Literature 2 (International Publication No. WO 2020/174963) listed above was used as a control compound.

[2] = molecular target: T3, phosphorylated α-synuclein (Mus musculus, UniProt O55042); experiment: In vitro fluorescence microscope measurement, brain sections of α-synuclein fibril-inoculated mouse; format: binding; conditions: 30 μmol/l test compound, 20% ethanol, co-stained with pS129 antibody, FIG. 3
T3 construct: from tissue; host or cells: brain of a C57/BL/6 mouse inoculated in the striatum with recombinant mouse α-synuclein fibrils (made in E. coli)
Method: When mouse α-synuclein is expressed in and extracted from E. coli as a recombinant protein and then incubated in vitro, insoluble α-synuclein aggregates are formed. By inoculating these α-synuclein aggregates into the striatum of a mouse, the α-synuclein aggregates propagate to surrounding areas via the neural circuitry, and an α-synuclein lesion is observed in the cerebral neocortex several months later (Masuda-Suzukake et al. Acta Neuropathol Commun 2, 88, 2014; Shimozawa et al. Acta Neuropathol Commun 5, 12, 2017). By extracting the brain of this mouse, preparing a section, and then analyzing the section by fluorescent staining, it is possible to examine whether the compound in accordance with an embodiment of the present invention binds to a lesion caused by phosphorylated α-synuclein.
First, mouse α-synuclein was expressed in and extracted from E. coli as a recombinant protein, and then incubated in vitro to form insoluble α-synuclein aggregates. The α-synuclein aggregates were then inoculated into the striatum of a mouse. […] Note that the inoculation of the α-synuclein aggregates into the striatum of the mouse was carried out in the following manner. […]
The brain of this α-synuclein fibril-inoculated mouse was extracted, and then sections were prepared. The sections were analyzed by fluorescent staining. […] After the section was mounted in a mounting medium (VECTASHIELD H-1000), an image of an α-synuclein aggregate-enriched area on the section was obtained with use of a fluorescence microscope (DM4000). […] After the section was subjected to immunohistochemical staining with use of an anti-phosphorylated α-synuclein monoclonal antibody (pS129, abcam, ab59264) (1:1000) and then mounted in a mounting medium (VECTASHIELD H-1000), an image of the same area as above was obtained with use of a fluorescence microscope (DM4000). […] In FIG. 3, each arrowhead indicates a lesion, caused by phosphorylated α-synuclein, in the brain of the α-synuclein fibril-inoculated mouse and fluorescence from the compound binding to the phosphorylated α-synuclein.

[3] = test system: tau aggregates or amyloid-β aggregates; experiment: In vitro fluorescence microscope measurement, AD patient brain sections compared with DLB sections; format: binding, human; conditions: for binding to α-synuclein aggregates compared with binding to tau aggregates or amyloid-β aggregates formed in the brain of the AD patient: 30 μmol/l test compound, DLB amygdala vs AD superior temporal gyrus sections; for ratio of binding to α-synuclein aggregates to binding to tau aggregates or amyloid-β aggregates, compared with the ratio of C05-05: 30 μmol/l, fluorescence intensity quantified, FIG. 2, comparator C05-05
Text: as §1, §2

α-synuclein aggregates [4] = molecular target: T2, α-synuclein aggregates; conditions: background art, cited from earlier work

Row | SMILES | binding to α-synuclein lesions in vivo (α-synuclein lesions) | binding to α-synuclein aggregates formed in the brain of the DLB patient (fluorescence) (α-synuclein aggregates [1]) | binding to α-synuclein aggregates compared with binding to tau aggregates or amyloid-β aggregates formed in the brain of the AD patient [3] | ratio of binding to α-synuclein aggregates to binding to tau aggregates or amyloid-β aggregates, compared with the ratio of C05-05 [3] | delivery into the brain and neurons of the living body (α-synuclein lesions) | binding to a lesion caused by phosphorylated α-synuclein [2] | binding selectivity with respect to the α-synuclein aggregates (α-synuclein aggregates [4]; binds to amyloid-β aggregates) | binding affinity with respect to the α-synuclein aggregates (α-synuclein aggregates [4])
1 | CNc1cnc(C#C/C=C/c2nc3ccc(OCC(O)CF)nc3s2)cn1 (stereo not shown) [SPAL-E-17, (E)-1-fluoro-3-((2-(4-(5-(methylamino)pyrazin-2-yl)but-1-en-3-yn-1-yl)thiazolo[5,4-b]pyridin-5-yl)oxy)propan-2-ol] | bound to α-synuclein lesions | bound to α-synuclein aggregates | greater | higher | delivered into the brain and further into neurons of the living body | bound to a lesion caused by phosphorylated α-synuclein |  | 
2 | CN([11CH3])c1ncc(/C=C/c2nc3ccc(OCCF)cc3o2)s1 [[^11C]BF-227] |  |  |  |  |  |  | low binding selectivity | insufficient binding affinity

Continued, in another order:

Row | binding to α-synuclein lesions in vivo (α-synuclein lesions) | binding to α-synuclein aggregates formed in the brain of the DLB patient (fluorescence) (α-synuclein aggregates [1]) | binding to α-synuclein aggregates compared with binding to tau aggregates or amyloid-β aggregates formed in the brain of the AD patient [3] | ratio of binding to α-synuclein aggregates to binding to tau aggregates or amyloid-β aggregates, compared with the ratio of C05-05 [3] | SMILES | delivery into the brain and neurons of the living body (α-synuclein lesions) | binding to a lesion caused by phosphorylated α-synuclein [2] | binding selectivity with respect to the α-synuclein aggregates (α-synuclein aggregates [4]; binds to amyloid-β aggregates) | binding affinity with respect to the α-synuclein aggregates (α-synuclein aggregates [4])
3 | bound to α-synuclein lesions |  |  |  | CNc1ccc(C#C/C=C/c2nc3ccc(OCC(O)CF)cc3s2)cn1 (stereo not shown) [Compound C05-05, reference compound] | delivered into the brain and further into neurons of the living body |  |  | 
4 | bound to α-synuclein lesions | bound to α-synuclein aggregates | greater | higher | CNc1cnc(C#C/C=C/c2nc3ccc(NCC(O)CF)cc3s2)cn1 (stereo not shown) [SPAL-T-83, (E)-1-fluoro-3-((2-(4-(5-(methylamino)pyrazin-2-yl)but-1-en-3-yn-1-yl)benzo[d]thiazol-6-yl)amino)propan-2-ol] | delivered into the brain and further into neurons of the living body | bound to a lesion caused by phosphorylated α-synuclein |  | 
5 | bound to α-synuclein lesions | bound to α-synuclein aggregates | greater | higher | CNc1ccc(C#C/C=C/c2nc3ccc(NCC(O)CF)cc3s2)cn1 (stereo not shown) [SPAL-T-95, (E)-1-fluoro-3-((2-(4-(6-(methylamino)pyridin-3-yl)but-1-en-3-yn-1-yl)benzo[d]thiazol-6-yl)amino)propan-2-ol] | delivered into the brain and further into neurons of the living body | bound to a lesion caused by phosphorylated α-synuclein |  | 
